Results from ChEMBL document CHEMBL3885861, “Open TG-GATES”.

Species on record: Rattus norvegicus
Assay: Open TG-GATES - Regimen: Daily Repeat
Type: toxicity, organism-based, Sprague-Dawley
Set-up: regimen Daily Repeat, gender Male, age 6 weeks
Conditions: in vivo, po, route gavage; for IP / K / LDH / Na / PL / RALB / TBIL / TC / TG / TP / gamma-GTP / A/G / ALP / ALT / AST / BUN / CRE / Ca / Cl / DBIL / GLC: tissue Plasma; for APTT / Bas / Eos / Fbg / Hb / Ht / Lym / MCH / MCHC / MCV / Mono / Neu / PT / Plat / RBC / Ret / WBC: tissue Blood; for KIDNEY_L / KIDNEY_R / KIDNEY_TOTAL: tissue Kidney; for LIVER: tissue Liver
[1] = 0 mg/kg, […], dose level Control, time 28 day
[2] = 3 mg/kg, 72 h, dose level Low, time 3 day
[3] = 3 mg/kg, […], dose level Low, time 7 day
[4] = 3 mg/kg, […], dose level Low, time 14 day
[5] = 3 mg/kg, […], dose level Low, time 28 day

Compound: CCN(CC)N=O [N-NITROSODIETHYLAMINE]
- IP [1]: 6.9 mg/dL
- K [1]: 3.7 meq/L
- LDH [1]: 203 IU/L
- Na [1]: 141 meq/L
- PL [1]: 135.2 mg/dL
- RALB [1]: 3.5 g/dL
- TBIL [1]: 0.2 mg/dL
- TC [1]: 72.4 mg/dL
- TG [1]: 104 mg/dL
- TP [1]: 6.1 g/dL
- gamma-GTP [1]: 1.2 IU/L
- TERMINAL_BW [2]: 235.3 g
- APTT [2]: 18.7 s
- Bas [2]: 0.2%
- Eos [2]: 1%
- Fbg [2]: 224.6 mg/dL
- Hb [2]: 13.3 g/dL
- Ht [2]: 38.4%
- Lym [2]: 82%
- MCH [2]: 21.3 pg
- MCHC [2]: 34.7%
- MCV [2]: 61.5 fL
- Mono [2]: 2%
- Neu [2]: 14.2%
- PT [2]: 11.7 s
- Plat [2]: 134.1 x10_4/uL
- RBC [2]: 624.4 x10_4/ul
- Ret [2]: 5.5%
- WBC [2]: 68.1 x10_2/uL
- KIDNEY_L [2]: 1.1 g
- KIDNEY_R [2]: 1.1 g
- KIDNEY_TOTAL [2]: 2.1 g
- LIVER [2]: 10.5 g
- A/G [2]: 1.5
- ALP [2]: 1018.6 IU/L
- ALT [2]: 33 IU/L
- AST [2]: 65.8 IU/L
- BUN [2]: 14.2 mg/dL
- CRE [2]: 0.4 mg/dL
- Ca [2]: 10.8 mg/dL
- Cl [2]: 102.6 meq/L
- DBIL [2]: 0.094 mg/dL
- GLC [2]: 204.6 mg/dL
- IP [2]: 8.5 mg/dL
- K [2]: 4.3 meq/L
- LDH [2]: 217.4 IU/L
- Na [2]: 140.6 meq/L
- PL [2]: 142.4 mg/dL
- RALB [2]: 3.3 g/dL
- TBIL [2]: 0.1 mg/dL
- TC [2]: 72.4 mg/dL
- TG [2]: 114.4 mg/dL
- TP [2]: 5.5 g/dL
- gamma-GTP [2]: 1.4 IU/L
- TERMINAL_BW [3]: 272 g
- TERMINAL_BW [4]: 323.6 g
- TERMINAL_BW [5]: 391.5 g
- APTT [3]: 20.6 s
- Bas [3]: 0%
- Eos [3]: 1%
- Fbg [3]: 219.2 mg/dL
- Hb [3]: 14 g/dL
- Ht [3]: 40%
- Lym [3]: 78.2%
- MCH [3]: 21.1 pg
- MCHC [3]: 34.8%
- MCV [3]: 60.7 fL
- Mono [3]: 3%
- Neu [3]: 17.2%
- PT [3]: 11.9 s
- Plat [3]: 142 x10_4/uL
- RBC [3]: 659.8 x10_4/ul
- Ret [3]: 4.8%
- WBC [3]: 96.9 x10_2/uL
- APTT [4]: 19.8 s
- Bas [4]: 0.8%
- Eos [4]: 1%
- Fbg [4]: 213.2 mg/dL
- Hb [4]: 14.4 g/dL
- Ht [4]: 41.3%
- Lym [4]: 78.4%
- MCH [4]: 20.8 pg
- MCHC [4]: 34.9%
- MCV [4]: 59.5 fL
- Mono [4]: 2%
- Neu [4]: 17.4%
- PT [4]: 12 s
- Plat [4]: 139.4 x10_4/uL
- RBC [4]: 695.4 x10_4/ul
- Ret [4]: 4.1%
- WBC [4]: 103.2 x10_2/uL
- APTT [5]: 19.1 s
- Bas [5]: 0.6%
- Eos [5]: 1.2%
- Fbg [5]: 215.6 mg/dL
- Hb [5]: 15.4 g/dL
- Ht [5]: 42.5%
- Lym [5]: 80.4%
- MCH [5]: 20.3 pg
- MCHC [5]: 36.3%
- MCV [5]: 55.9 fL
- Mono [5]: 2.4%
- Neu [5]: 15%
- PT [5]: 11.7 s
- Plat [5]: 124.2 x10_4/uL
- RBC [5]: 759.6 x10_4/ul
- Ret [5]: 2.9%
- WBC [5]: 104.7 x10_2/uL
- KIDNEY_L [3]: 1.2 g
- KIDNEY_R [3]: 1.2 g
- KIDNEY_TOTAL [3]: 2.3 g
- KIDNEY_L [4]: 1.3 g
- KIDNEY_R [4]: 1.2 g
- KIDNEY_TOTAL [4]: 2.5 g
- KIDNEY_L [5]: 1.3 g
- KIDNEY_R [5]: 1.3 g
- KIDNEY_TOTAL [5]: 2.7 g
- LIVER [3]: 12 g
- LIVER [4]: 13 g
- LIVER [5]: 14 g
- A/G [3]: 1.6
- ALP [3]: 847.6 IU/L
- ALT [3]: 31.2 IU/L
- AST [3]: 67.2 IU/L
- BUN [3]: 15.4 mg/dL
- CRE [3]: 0.4 mg/dL
- Ca [3]: 10.6 mg/dL
- Cl [3]: 103.4 meq/L
- DBIL [3]: 0.1 mg/dL
- GLC [3]: 191.6 mg/dL
- IP [3]: 8.2 mg/dL
- K [3]: 4.4 meq/L
- LDH [3]: 214.2 IU/L
- Na [3]: 140.4 meq/L
- PL [3]: 131.6 mg/dL
- RALB [3]: 3.4 g/dL
- TBIL [3]: 0.2 mg/dL
- TC [3]: 66.8 mg/dL
- TG [3]: 122.2 mg/dL
- TP [3]: 5.5 g/dL
- gamma-GTP [3]: 1 IU/L
- A/G [4]: 1.4
- ALP [4]: 752 IU/L
- ALT [4]: 36 IU/L
- AST [4]: 68.6 IU/L
- BUN [4]: 15.2 mg/dL
- CRE [4]: 0.4 mg/dL
- Ca [4]: 10.6 mg/dL
- Cl [4]: 102 meq/L
- DBIL [4]: 0.096 mg/dL
- GLC [4]: 192.2 mg/dL
- IP [4]: 7.7 mg/dL
- K [4]: 3.9 meq/L
- LDH [4]: 190.2 IU/L
- Na [4]: 141.2 meq/L
- PL [4]: 129.4 mg/dL
- RALB [4]: 3.4 g/dL
- TBIL [4]: 0.2 mg/dL
- TC [4]: 68.8 mg/dL
- TG [4]: 79.4 mg/dL
- TP [4]: 5.8 g/dL
